Test results: patent publication US20190365700A1, “Methods for Isolating Tumor-Specific Immune Cells from a Subject for Adoptive Cell Therapy and Cancer Vaccines” (CRITITECH, INC., priority 2018, published 2019)
Converted amounts (≈) assume the structure as drawn. “And” between values parts separate entries of the source, which are not always exact repeats. Identical values can stand only once. Marks after values point to notes of the source that are not given here.

Experiments:
[1] = test system: human renal cell adenocarcinoma (786-O cell line); assay: Renal cell adenocarcinoma xenograft: histology and IHC (viable carcinoma size, necrosis, lymphohistiocytic infiltrate); assay type: in vivo, Sprague-Dawley Rag2; Il2rg null (SRG®) rat
Source text: Microscopic Examination: Tissues fixed with 10% NBF were embedded in paraffin. Each tumor was cut into 2-3 pieces and embedded and sectioned together.

[2] = test system: UM-UC-3 bladder cancer cell line (ATCC-CRL-1749) tumors; assay: Bladder cancer xenograft: histology and IHC (viable carcinoma size, necrosis, macrophage infiltrate, TLS, necropsy volume); assay type: in vivo, Hsd:Athymic Nude-Foxnlnu nude mice
[3] = test system: immune cells (CD45+, CD4+, CD8+, Treg, MDSC, M1 and M2 macrophages) in tumor tissue; assay: Renca study: flow cytometry of immune cells in tumor tissue; assay type: in vivo, female BALB/c mice; conditions: individual animals, IV docetaxel group
Method: Organ Collection: Tumor (divide into 2 parts). […] Sent to laboratory for IHC staining. Part 2: preservation—processed to single cell suspension, shipping condition—4° C. (wet ice). Retained at CRL-NC for flow cytometry. See Flow panel in Table 40 below. Tumor preservation for early euthanasia in Groups 2-10: Excised tumor and surrounding area from the mammary fat pad area (cranial) to just past tumor (caudal). The region included the inguinal lymph node. Sectioned this sample every 4 mm from the cranial to caudal end and enclosed in separate cassettes labeled in order.
(§1) Peripheral blood and tumor tissue were collected for analysis via flow cytometry. Cell types analyzed included T-Cells: CD4+, CD8+(Tumor Suppression); Treg (Tumor Promotion); M1 Macrophages (Tumor Suppression); M2 Macrophages (Tumor Promotion); and […].

[4] = test system: Renca syngeneic renal carcinoma; assay: Renca syngeneic xenograft study: secondary tumor growth (groups 8-10); assay type: in vivo, female BALB/c mice; conditions: IV docetaxel doses
Method: The schedule in Table 39 was followed.
Cell Injection Volume: 0.1 mL/mouse. Age at Start Date: 8 to 12 weeks. […] Body Weight: 5/2 then tiwk to end. Caliper Measurement: tiwk to end. Double caliper measurements were performed for Groups 8-10. […] The group was not euthanized and recovery was allowed.
Endpoints: Groups 1-7: Endpoint TGI. Animals were monitored as a group.

[5] = test system: human renal cell adenocarcinoma (786-O cell line); assay: Rat xenograft model of human renal cell adenocarcinoma: tumor volume, body weight, observations; assay type: in vivo, Sprague-Dawley Rag2; Il2rg null (SRG®) rat; conditions: IV docetaxel, 3 weekly cycles
[6] = test system: UM-UC-3 bladder cancer cell line (ATCC-CRL-1749) tumors; assay: Human bladder cancer (UM-UC-3) mouse xenograft study: tumor volume, body weight, observations; assay type: in vivo, Hsd:Athymic Nude-Foxnlnu nude mice
Method: Tumor volume was determined with calipers. […] Animals were weighed 2×/week.
At day 18 after tumor implant, when average tumor size was between 50-325 mm^3, animals were sorted into five groups with equal average tumor sizes and were treated as shown in Table 25 below.
The second treatments (2nd cycle) occurred 7 days following first treatment (1st cycle) and third treatments (3rd cycle) occurred 14 days following the first treatment. The docetaxel solution IV was administered via the tail vein.
Vehicle (Control): Diluted 1 ml of the 1% Polysorbate 80/8% Ethanol in normal saline (0.9% Sodium Chloride for Injection) reconstitution solution with 1.5 mL of normal saline (0.9% Sodium Chloride for Injection, USP). […] Vigorously hand shook the vial with inversions for 1 minute. […] Allowed the suspension to sit undisturbed for at least 5 minutes to reduce entrapped air and foam. […] Vortexed to mix.

[7] = test system: Renca syngeneic renal carcinoma
Source text: Animals were monitored as a group. […] When the endpoint was reached, all the animals were euthanized. […]

[8] = test system: immune cells (CD45+, CD4+, CD8+, Treg, MDSC, M1 and M2 macrophages) in blood; assay: Renca study: flow cytometry of immune cells in blood; assay type: in vivo, female BALB/c mice; conditions: IV Docetaxel, individual animals
Method: Blood Collection: Collected full volume blood by terminal cardiac puncture under isoflurane anesthesia. Processed blood for: Whole Blood: anti-coagulant—K2EDTA, preservation—Cooled 4° C., shipping condition—4° C. (wet ice). Retained at CRL-NC for flow cytometry. See Flow panel in Table 40 below.
as §1

[9] = Solubility of the active in receptor fluid; assay type: physicochemical; conditions: 96 wt % PBS pH 7.4 and 4 wt % HPBCD
Method: The receptor fluid was degassed by filtering the receptor fluid through a ZapCap CR 0.2 μm membrane while pulling vacuum. The filtered receptor fluid was stirred for an additional 20 minutes while maintaining vacuum to ensure complete degassing.

[10] = IV Docetaxel 3 cycles, 2 animals
[11] = IV docetaxel 3 cycles, two cases

With `CC(=O)O[C@@]12CO[C@@H]1C[C@H](O)[C@@]1(C)C(=O)[C@H](O)C3=C(C)[C@@H](OC(=O)[C@H](O)[C@@H](NC(=O)OC(C)(C)C)c4ccccc4)C[C@@](O)([C@@H](OC(=O)c4ccccc4)[C@H]21)C3(C)C` [Doce] the “Number of animals with <5% of tissue showing necrosis” value ([1]; IV docetaxel, 2 animals) was 2 and the “Lymphohistiocytic infiltrate density: number of animals graded Mild” value ([1]; IV docetaxel, 2 animals, H/E and CD11b IHC) was 2.
For `CC(=O)O[C@@]12CO[C@@H]1C[C@H](O)[C@@]1(C)C(=O)[C@H](O)C3=C(C)[C@@H](OC(=O)[C@H](O)[C@@H](NC(=O)OC(C)(C)C)c4ccccc4)C[C@@](O)([C@@H](OC(=O)c4ccccc4)[C@H]21)C3(C)C` [docetaxel], the “general histological observation (H&E)” value ([2]; Docetaxel Solution IV 3 cycles) was “many viable appearing tumor masses with some macrophage and occasional lymphocytic response along with some tumor necrosis”, the “animals with 11-50% of tumor showing necrosis” value [2, 10] was 1 and the “animals with 50-90% of tumor showing necrosis” value [2, 10] was 1. The “animals with maximum size of viable invasive carcinoma on the slide >10 mm” value [2, 10] was 2*, the “Macrophage infiltrate density: number of animals graded Mild” value ([2]; IV Docetaxel 3 cycles, surrounding non-neoplastic tissue, H&E and CD68 IHC) was 2 and the TLSs [2, 11] was “no TLSs present”. The “tumor masses, maximum dimension on the slide” value [2, 11] was 11 mm and 15 mm, the “CD8 (% of CD45)” value [3] was 0.75% and 0.5% and 0.28% and 0.31% (2×) and 0.061% and 0.32% and 0.45% and 0.81% and 0.33% and the “CD8 Count” value [3] was 33 and 40 and 26 and 193 and 9 and 145 and 36 and 214 and 137 and 270. The “CD45 (% of Live)” value [3] was 38.2% and 42.8% and 52.7% and 68.9% and 74.1% and 57.8% and 32.5% and 63.3% and 73% and 67.2%, the “CD45 Count” value [3] was 4375 and 8052 and 9275 and 62614 and 14728 and 45332 and 8088 and 26310 and 41555 and 86029 and the “Conv CD4 (% of CD45)” value [3] was 1.23% and 1.15% and 1.51% and 0.44% and 0.16% and 0.58% and 0.62% and 2.55% and 1.65% and 0.59%. The “Conv CD4 Count” value [3] was 54 and 93 and 140 and 275 and 23 and 265 and 50 and 670 and 687 and 509, the “Live Count” value [3] was 11443 and 18796 and 17590 and 90940 and 19863 and 78365 and 24901 and 41595 and 56947 and 128055 and the “M1 Mac (% of CD45)” value [3] was 10.5% and 6.97% and 8.59% and 8.44% and 3.34% and 9.16% and 8.65% and 7.47%. The “M1 Mac Count” value [3] was 460 and 561 and 797 and 5285 and 492 and 4154 and 700 and 3186 and 5446 and 6428, the “M2 Mac (% of CD45)” value [3] was 28% and 25.2% and 18.6% and 25.3% and 2.66% and 54.1% and 8.62% and 26.9% and 52.8% and 67.2% and the “M2 Mac Count” value [3] was 1223 and 2030 and 1727 and 15846 and 392 and 24543 and 697 and 7074 and 21953 and 57825. The “MDSC (% of CD45)” value [3] was 25.1% and 32.8% and 42.5% and 44% and 83.3% and 20% and 70.4% and 37.3% and 10.4%, the “MDSC Count” value [3] was 1098 and 2644 and 3940 and 27578 and 12265 and 9063 and 5696 and 9821 and 4302 and 11067 and the “Treg (% of CD45)” value [3] was 1.58% and 0.55% and 0.32% and 0.62% and 0.16% and 0.54% and 0.21% and 1.05% and 0.42% and 0.6%. For the same compound, the “Treg Count” value [3] was 69 and 44 and 30 and 386 and 23 and 244 and 17 and 276 and 176 and 520, the “histology vs vehicle control (H&E)” value ([1]; Docetaxel (IV) 3 cycles, female rat) was “no difference” and the “Number of animals with residual viable carcinoma >10 mm on slide” value ([1]; IV docetaxel, 2 animals) was 2. The “growth rate of the secondary Renca tumors” value [4] was “did not reduce the growth rate”, the “tumor growth compared to vehicle control” value [5] was “partial tumor growth inhibition” and the tumor volumes ([6]; Docetaxel IV 30 mg/kg, 3 cycles, 61 days) was “decreased initially”. The “effectiveness by initial tumor size” value ([6]; Docetaxel IV 3 cycles) was “somewhat effective at treating small tumors, but not very effective in treating large tumors”, the “initial animal weight loss” value ([6]; Docetaxel IV 3 cycles vs nDoce IT 1, 2, 3 cycles) was “generally greater” and the “signs of peripheral neuropathy” value ([6]; Docetaxel IV 3 cycles vs nDoce IT 3 cycles) was “greater signs of peripheral neuropathy”. The “tumor volume compared to vehicle” value ([7]; IV docetaxel Day 1 (10 mg/kg) and Day 11 (5 mg/kg)) was “No difference”, the “toxicity leading to modified administration schedule” value ([7]; mouse, in vivo, iv) was “systemic toxicity” and the “CD8 (% of CD45)” value [8] was 1.18 % of CD45 and 1.46 % of CD45 and 1.58 % of CD45 and 1.55 % of CD45 and 1.59 % of CD45 and 0.55 % of CD45 and 1.28 % of CD45 and 1.03 % of CD45 and 1.02 % of CD45 and 0.73 % of CD45. For the same compound, the “CD8 Count” value [8] was 17438 and 12556 and 18524 and 4199 and 7615 and 8711 and 14504 and 9765 and 8882 and 12561, the “CD45 (% of Live)” value [8] was 98.5 % of Live and 80.9 % of Live and 97.9 % of Live and 95.7 % of Live (2×) and 96.1 % of Live and 95.5 % of Live and 95.6 % of Live and 97 % of Live and 96.4 % of Live and the “CD45 Count” value [8] was 1360000 (2×) and 1180000 and 1200000 and 1010000 and 348468 and 983000 and 1340000 and 1210000 and 968000. The “Conv CD4 (% of CD45)” value [8] was 2.49 % of CD45 and 3.95 % of CD45 and 3.1 % of CD45 and 2.64 % of CD45 and 2.38 % of CD45 and 1.58 % of CD45 and 3.25 % of CD45 and 1.32 % of CD45 and 2.46 % of CD45 and 1.77 % of CD45, the “Conv CD4 Count” value [8] was 44244 and 33048 and 31633 and 9629 and 12646 and 22949 and 34177 and 22034 and 21457 and 27808 and the “Live Count” value [8] was 1420000 and 1220000 and 1250000 and 1030000 and 350478 and 1390000 and 1010000 and 1360000 and 1260000 and 997000. The “M1 Mac (% of CD45)” value [8] was 15.1 % of CD45 and 9.39 % of CD45 and 12.3 % of CD45 and 6.95 % of CD45 and 7.96 % of CD45 and 6.79 % of CD45 and 9.93 % of CD45 and 10.7 % of CD45 and 9.78 % of CD45 and 9.15 % of CD45, the “M1 Mac Count” value [8] was 135234 and 150642 and 83214 and 124451 and 18526 and 145555 and 84022 and 122157 and 110868 and 43948 and the “M2 Mac (% of CD45)” value [8] was 0.12 % of CD45 and 0.054 % of CD45 and 0.066 % of CD45 and 0.14 % of CD45 and 0.17 % of CD45 and 0.2 % of CD45 and 0.056 % of CD45 and 0.48 % of CD45 and 0.07 % of CD45 and 0.19 % of CD45. For the same compound, the “M2 Mac Count” value [8] was 765 and 815 and 1633 and 582 and 373 and 875 and 257 and 2069 and 2323 and 512, the “MDSC (% of CD45)” value [8] was 72.7 % of CD45 and 64.8 % of CD45 and 63.3 % of CD45 and 75.9 % of CD45 and 72.8 % of CD45 and 79 % of CD45 and 73.4 % of CD45 and 72.5 % of CD45 and 77.7 % of CD45 and 76.3 % of CD45 and the “MDSC Count” value [8] was 1000000 (2×) and 871000 and 909000 and 742000 and 255851 and 734000 (2×) and 1010000 and 925000. The “Treg (% of CD45)” value [8] was 0.092 % of CD45 and 0.22 % of CD45 and 0.13 % of CD45 and 0.073 % of CD45 and 0.035 % of CD45 and 0.078 % of CD45 and 0.087 % of CD45 and 0.047 % of CD45 and 0.1 % of CD45 and 0.071 % of CD45 and the “Treg Count” value [8] was 1182 and 578 and 872 and 461 and 222 and 871 and 1300 and 870 and 856 and 992.
With `CC(=O)O[C@H]1C(=O)[C@@]2(C)[C@H]([C@H](OC(=O)c3ccccc3)[C@]3(O)C[C@H](OC(=O)[C@H](O)[C@@H](NC(=O)c4ccccc4)c4ccccc4)C(C)=C1C3(C)C)[C@]1(OC(C)=O)CO[C@@H]1C[C@@H]2O` [paclitaxel] the “solubility in the receptor fluid” value [9] was roughly 0.4 µg/mL (≈ 0.468 µM).
